# Reference: patent publication US20250230171A1 (MOMA Therapeutics, Inc., priority 2023, published 2025)
# Where two headings read alike, the source gives them in different places.
# Columns and labels:
# [1] = test system: DLD1 BRCA2 (−/−) cells; assay: 7-day cell viability assay (CellTiter-Glo), DLD1 BRCA2 (−/−); assay type: cell-based, human; conditions: 7-day CellTiter-Glo, n=2, read-out: Viability IC50 (uM) DLD1 BRCA2 null
# How it was run: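 7-day growth assay in DLD1 cells with or without BRCA2; seeding densities chosen to keep log-linear growth. Compound: 10 uM top, 3-fold, 9 points. Endpoint: CTG ATP luminescence at RT.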
# [2] = test system: DLD1 WT cells; assay: 7-day cell viability assay (CellTiter-Glo), DLD1 parental (WT); assay type: cell-based, human; conditions: 7-day CellTiter-Glo, n=2
Compound,"IC50 ([1]; Homo sapiens, DLD-1, 168 h)","IC50 ([2]; Homo sapiens, DLD-1, 168 h)",IC50 [1],IC50 [2]
"COc1cnc(Cl)cc1-c1cc(C)ncc1C(=O)Nc1nc2c(s1)CN(C(=O)c1cnc(OC(F)F)c(C)n1)C2 [Example 990, 2′-chloro-N-(5-(5-(difluoromethoxy)-6-methylpyrazine-2-carbonyl)-5,6-dihydro-4H-pyrrolo[3,4-d]thiazol-2-yl)-5′-methoxy-6-methyl-[4,4′-bipyridine]-3-carboxamide]",0.001 to 0.1 µM,≥ 10 µM,–,–
"2′-Chloro-N-(5-(5-(difluoromethyl)-3-methoxypyrazine-2-carbonyl)-5,6-dihydro-4H-pyrrolo[3,4-d]thiazol-2-yl)-5′-methoxy-6-methyl-[4,4′-bipyridine]-3-carboxamide [Example 418]",–,–,0.001 to 0.1 µM,5 to 10 µM
"COc1cnc(Cl)cc1-c1cc(C)ncc1C(=O)Nc1nc2c(s1)CN(C(=O)c1nccc(C(F)(F)F)c1C)C2 [Example 951, 2′-chloro-5′-methoxy-6-methyl-N-(5-(3-methyl-4-(trifluoromethyl)picolinoyl)-5,6-dihydro-4H-pyrrolo[3,4-d]thiazol-2-yl)-[4,4′-bipyridine]-3-carboxamide]",0.001 to 0.1 µM,≥ 10 µM,–,–
"2′-chloro-N-(5-(6-chloro-5-fluoropicolinoyl)-5,6-dihydro-4H-pyrrolo[3,4-d]thiazol-2-yl)-5′-methoxy-6-methyl-[4,4′-bipyridine]-3-carboxamide [Example 388]",–,–,0.001 to 0.1 µM,2 to 5 µM
"COc1ncc(Cl)cc1-c1cc(C)ncc1C(=O)Nc1nc2c(s1)CN(C(=O)c1ccc(C(F)F)cn1)C2 [Example 446, 5-Chloro-N-(5-(5-(difluoromethyl)picolinoyl)-5,6-dihydro-4H-pyrrolo[3,4-d]thiazol-2-yl)-2-methoxy-6′-methyl-[3,4′-bipyridine]-3′-carboxamide]",0.001 to 0.1 µM,2 to 5 µM,–,–
"COc1cnc(Cl)cc1-c1cc(C)ncc1C(=O)Nc1nc2c(s1)CN(C(=O)c1ccc(C(F)(F)F)nc1Cl)C2 [Example 923, 2′-chloro-N-(5-(2-chloro-6-(trifluoromethyl)nicotinoyl)-5,6-dihydro-4H-pyrrolo[3,4-d]thiazol-2-yl)-5′-methoxy-6-methyl-[4,4′-bipyridine]-3-carboxamide]",0.001 to 0.1 µM,≥ 10 µM,–,–
"2′-Chloro-5′-methoxy-6-methyl-N-(5-(4-methyl-6-(trifluoromethoxy)nicotinoyl)-5,6-dihydro-4H-pyrrolo[3,4-d]thiazol-2-yl)-[4,4′-bipyridine]-3-carboxamide [Example 561]",–,–,0.001 to 0.1 µM,≥ 10 µM
COc1cnc(Cl)cc1-c1cc(C)ncc1C(=O)Nc1nc2c(s1)CN(C(=O)c1ncc(OC(F)F)cc1C)C2,0.001 to 0.1 µM,≥ 10 µM,–,–
"COc1nc(C(F)(F)F)ccc1C(=O)N1Cc2nc(NC(=O)c3cnc(C)cc3-c3cc(C(F)F)cnc3OC)sc2C1 [Example 1032, 5-(difluoromethyl)-2-methoxy-N-(5-(2-methoxy-6-(trifluoromethyl)nicotinoyl)-5,6-dihydro-4H-pyrrolo[3,4-d]thiazol-2-yl)-6′-methyl-[3,4′-bipyridine]-3′-carboxamide]",0.001 to 0.1 µM,≥ 10 µM,–,–
COc1cnc(Cl)cc1-c1cc(C)ncc1C(=O)Nc1nc2c(s1)CN(C(=O)c1c(C)cc(C(F)(F)F)nc1C)C2 [Example 649],0.001 to 0.1 µM,≥ 10 µM,–,–
COc1cnc(Cl)cc1-c1cc(C)ncc1C(=O)Nc1nc2c(s1)CN(C(=O)c1nc(C)cnc1C)C2,0.1 to 0.25 µM,≥ 10 µM,–,–
"COc1cnc(Cl)cc1-c1cc(C)ncc1C(=O)Nc1nc2c(s1)CN(C(=O)c1cc(C)c(C(F)F)cn1)C2 [Example 903, 2′-chloro-N-(5-(5-(difluoromethyl)-4-methylpicolinoyl)-5,6-dihydro-4H-pyrrolo[3,4-d]thiazol-2-yl)-5′-methoxy-6-methyl-[4,4′-bipyridine]-3-carboxamide]",0.001 to 0.1 µM,≥ 10 µM,–,–
"COc1cnc(Cl)cc1-c1cc(C)ncc1C(=O)Nc1nc2c(s1)CN(C(=O)c1ncc(C(F)F)c(OC)n1)C2 [Example 907, 2′-chloro-N-(5-(5-(difluoromethyl)-4-methoxypyrimidine-2-carbonyl)-5,6-dihydro-4H-pyrrolo[3,4-d]thiazol-2-yl)-5′-methoxy-6-methyl-[4,4′-bipyridine]-3-carboxamide]",0.001 to 0.1 µM,≥ 10 µM,–,–
COc1cnc(Cl)cc1-c1cc(C)ncc1C(=O)Nc1nc2c(s1)CN(C(=O)c1ccc(C#N)c(C)n1)C2,0.001 to 0.1 µM,≥ 10 µM,–,–
"COc1cnc(Cl)cc1-c1cc(C)ncc1C(=O)Nc1nc2c(s1)CN(Cc1ccc(C(F)F)cc1F)C2 [Example 964, 2′-chloro-N-(5-(4-(difluoromethyl)-2-fluorobenzyl)-5,6-dihydro-4H-pyrrolo[3,4-d]thiazol-2-yl)-5′-methoxy-6-methyl-[4,4′-bipyridine]-3-carboxamide]",0.001 to 0.1 µM,≥ 10 µM,–,–
COc1cnc(Cl)cc1-c1cc(C)ncc1C(=O)Nc1nc2c(s1)CN(C(=O)c1ncc(C(F)(F)F)c(C)c1C)C2,0.001 to 0.1 µM,≥ 10 µM,–,–
"COc1nnc(C(F)F)cc1-c1cc(C)ncc1C(=O)Nc1nc2c(s1)CN(C(=O)c1nccc(C(F)(F)F)c1F)C2 [Example 1026, 4-(6-(difluoromethyl)-3-methoxypyridazin-4-yl)-N-(5-(3-fluoro-4-(trifluoromethyl)picolinoyl)-5,6-dihydro-4H-pyrrolo[3,4-d]thiazol-2-yl)-6-methylnicotinamide]",0.001 to 0.1 µM,≥ 10 µM,–,–
"COc1cnc(Cl)cc1-c1cc(C)ncc1C(=O)Nc1nc2c(s1)CN(C(=O)c1nc(C)cc(C(F)(F)F)c1C)C2 [Example 999, 2′-chloro-N-(5-(3,6-dimethyl-4-(trifluoromethyl)picolinoyl)-5,6-dihydro-4H-pyrrolo[3,4-d]thiazol-2-yl)-5′-methoxy-6-methyl-[4,4′-bipyridine]-3-carboxamide]",0.001 to 0.1 µM,≥ 10 µM,–,–
"COc1cnc(C)c(F)c1-c1cc(C)ncc1C(=O)Nc1nc2c(s1)CN(C(=O)c1ccc(C(F)(F)F)nc1OC)C2 [Example 1029, 3′-fluoro-5′-methoxy-N-(5-(2-methoxy-6-(trifluoromethyl)nicotinoyl)-5,6-dihydro-4H-pyrrolo[3,4-d]thiazol-2-yl)-2′,6-dimethyl-[4,4′-bipyridine]-3-carboxamide]",0.001 to 0.1 µM,≥ 10 µM,–,–
"2′-Chloro-5′-methoxy-6-methyl-N-(5-(3-methyl-5-(trifluoromethoxy)picolinoyl)-5,6-dihydro-4H-pyrrolo[3,4-d]thiazol-2-yl)-[4,4′-bipyridine]-3-carboxamide [Example 560]",–,–,0.001 to 0.1 µM,≥ 10 µM
"COc1cnc(Cl)cc1-c1cc(C)ncc1C(=O)Nc1nc2c(s1)CN(C(=O)c1cccc(OC)c1Cl)C2 [Example 396, 2′-chloro-N-(5-(2-chloro-3-methoxybenzoyl)-5,6-dihydro-4H-pyrrolo[3,4-d]thiazol-2-yl)-5′-methoxy-6-methyl-[4,4′-bipyridine]-3-carboxamide]",0.001 to 0.1 µM,≥ 10 µM,–,–
"COc1cnc(Cl)c(F)c1-c1cc(C)ncc1C(=O)Nc1nc2c(s1)CN(C(=O)c1ccc(C(F)(F)F)nc1OC)C2 [Example 1023, 2′-chloro-3′-fluoro-5′-methoxy-N-(5-(2-methoxy-6-(trifluoromethyl)nicotinoyl)-5,6-dihydro-4H-pyrrolo[3,4-d]thiazol-2-yl)-6-methyl-[4,4′-bipyridine]-3-carboxamide]",0.001 to 0.1 µM,≥ 10 µM,–,–
